IC50 data for 21 compounds are collected here from patent publication US7304174B2, “CaSR antagonist” (Japan Tobacco Inc., priority 2003, dated 2007).

Molecules are shown by their SMILES.

The target of this test is T1, human calcium receptor (Homo sapiens, UniProt P41180).
T1 construct: expressed in transfected cells; host or cells: cell strain derived from rat adrenal, co-transformed with luciferase cDNA
T1 sequence (P41180 20-1078): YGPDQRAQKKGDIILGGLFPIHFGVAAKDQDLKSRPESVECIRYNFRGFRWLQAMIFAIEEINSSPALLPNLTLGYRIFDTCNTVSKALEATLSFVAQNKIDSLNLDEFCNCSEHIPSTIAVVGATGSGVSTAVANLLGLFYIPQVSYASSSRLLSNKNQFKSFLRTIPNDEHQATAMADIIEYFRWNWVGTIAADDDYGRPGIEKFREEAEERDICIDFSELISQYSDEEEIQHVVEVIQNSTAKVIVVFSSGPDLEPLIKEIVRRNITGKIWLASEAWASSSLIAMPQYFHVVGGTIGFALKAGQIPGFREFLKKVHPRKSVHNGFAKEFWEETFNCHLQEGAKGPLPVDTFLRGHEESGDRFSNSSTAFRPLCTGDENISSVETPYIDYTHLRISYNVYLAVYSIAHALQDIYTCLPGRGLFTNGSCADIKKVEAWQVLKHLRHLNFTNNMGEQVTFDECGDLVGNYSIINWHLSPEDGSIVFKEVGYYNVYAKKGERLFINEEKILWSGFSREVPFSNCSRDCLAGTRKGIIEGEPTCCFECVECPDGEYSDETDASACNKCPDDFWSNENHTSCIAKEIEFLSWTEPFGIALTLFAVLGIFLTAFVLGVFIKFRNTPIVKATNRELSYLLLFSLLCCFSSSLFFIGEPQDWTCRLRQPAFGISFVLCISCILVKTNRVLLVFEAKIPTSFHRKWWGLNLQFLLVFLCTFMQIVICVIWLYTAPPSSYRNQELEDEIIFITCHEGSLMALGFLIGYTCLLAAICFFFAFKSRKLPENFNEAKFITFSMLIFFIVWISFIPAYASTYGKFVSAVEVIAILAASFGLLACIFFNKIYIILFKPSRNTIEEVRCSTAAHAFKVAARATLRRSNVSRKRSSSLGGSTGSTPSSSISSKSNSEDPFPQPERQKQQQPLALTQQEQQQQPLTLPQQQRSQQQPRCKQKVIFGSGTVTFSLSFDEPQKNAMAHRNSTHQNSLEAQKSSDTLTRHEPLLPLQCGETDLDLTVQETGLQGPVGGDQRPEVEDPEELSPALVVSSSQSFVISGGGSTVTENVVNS
In words: Evaluation of antagonistic action on calcium receptor using reporter gene (luciferase). It counts as cell-based. The settings on record: transformed rat adrenal derived cells, 5 mM calcium chloride, culture 4 hrs, luciferase activity; read-out: Reporter gene assay (IC50, concentration showing 50% inhibitory rate). The protocol: Evaluation of Antagonistic Action on Calcium Receptor Using Reporter Gene
Luciferase cDNA and human calcium receptor cDNA were introduced into a cell strain derived from rat adrenal to transform the cells, and the transformed cells were cultured in a medium (80 μl, F12 medium containing 0.5% dialyzed horse serum and 0.25% dialyzed bovine fetal serum). A dimethyl sulfoxide solution containing a test compound at 0.1-10000 μM was diluted 100-fold with the medium and added to the test compound group at 10 μl per well (dimethyl sulfoxide final concentration 0.1%). In the same manner as in test compound group, dimethyl sulfoxide 100-fold diluted with medium was added to a control group and a blank group. Then, 50 mM calcium chloride-containing medium was added to every well except the blank group at 10 μl per well (final concentration 5 mM). A medium containing 50 mM calcium chloride was added to the control group at 10 μl per well, such that the final calcium concentration of the medium became 5 mM. A medium alone was added to the blank group. After culture for 4 hrs, luciferase substrate was added and the luciferase activity was measured with a photoluminometer. The inhibitory rate (%) was calculated from the obtained measured values according to the following formula.
Based on the results, the concentration (IC50) showing 50% inhibitory rate was determined. The results are shown in the aforementioned Tables 1 to 60.
On the technique in general: In a reporter assay the amount or activity of a reporter protein is the signal.
Take `COc1cc(CC(C)(C)NC[C@@H](O)CO[C@H](C)c2ccccc2-c2ccc(C(=O)O)c(C)c2)ccc1Cl` [Example 1-23, 2′-[1-[(2R)-3-[[1-(4-chloro-3-methoxyphenyl)-2-methylpropan-2-yl]amino]-2-hydroxypropoxy]ethyl]-3-methylbiphenyl-4-carboxylic acid]: the IC50 was determined as 16 nM.
Turning to `CCc1ccc(CC(C)(C)NC[C@@H](O)CO[C@H](C)c2ccccc2-c2ccc(C(=O)O)c(C)c2)cc1` [Example 1-24, 2′-[1-[(2R)-3-[[1-(4-ethylphenyl)-2-methylpropan-2-yl]amino]-2-hydroxypropoxy]ethyl]-3-methylbiphenyl-4-carboxylic acid], the IC50 amounted to 20 nM.
Consider `Cc1cc(-c2ccccc2[C@@H](C)OC[C@H](O)CNC(C)(C)Cc2cc(F)c(Cl)cc2F)ccc1C(=O)O` [Example 1-25, 2′-[1-[(2R)-3-[[1-(4-chloro-2,5-difluorophenyl)-2-methylpropan-2-yl]amino]-2-hydroxypropoxy]ethyl]-3-methylbiphenyl-4-carboxylic acid], for which the IC50 was found to be 19 nM.
As for `CC(OC[C@H](O)CNC(C)(C)Cc1ccc2ccccc2c1)c1ccccc1-c1ccc(C(=O)O)c(C(F)(F)F)c1` (stereo partly drawn) [Example 1-28, 2′-[1-[(2R)-3-[[1-(naphthalen-2-yl)-2-methylpropan-2-yl]amino]-2-hydroxypropoxy]ethyl]-3-(trifluoromethyl)biphenyl-4-carboxylic acid], the IC50 turned out to be 7 nM.
For `COc1ccc(CC(C)(C)NC[C@@H](O)CO[C@H](C)c2ccccc2-c2ccc(C(=O)O)c(C(F)(F)F)c2)c(F)c1` [Example 1-29, 2′-[1-[(2R)-3-[[1-(2-fluoro-4-methoxyphenyl)-2-methylpropan-2-yl]amino]-2-hydroxypropoxy]ethyl]-3-(trifluoromethyl)biphenyl-4-carboxylic acid], the IC50 stood at 82 nM.
For `C[C@@H](OC[C@H](O)CNC(C)(C)Cc1ccc(Cl)c(Cl)c1)c1ccccc1-c1ccc(C(=O)O)c(C(F)(F)F)c1` [Example 1-31, 2′-[1-[(2R)-3-[[1-(3,4-dichlorophenyl)-2-methylpropan-2-yl]amino]-2-hydroxypropoxy]ethyl]-3-(trifluoromethyl)biphenyl-4-carboxylic acid], the IC50 stood at 5 nM.
As for `CCCc1cc(-c2ccccc2[C@@H](C)OC[C@H](O)CNC(C)(C)Cc2ccc3ccccc3c2)ccc1C(=O)O` [Example 1-36, 2′-[1-[(2R)-3-[[1-(naphthalen-2-yl)-2-methylpropan-2-yl]amino]-2-hydroxypropoxy]ethyl]-3-propylbiphenyl-4-carboxylic acid], the IC50 worked out at 2 nM.
As for `Cc1c(C(=O)O)ccc(-c2ccccc2[C@@H](C)OC[C@H](O)CNC(C)(C)Cc2ccc3ccccc3c2)c1C` [Example 1-37, 2,3-dimethyl-2′-[1-[(2R)-3-[[1-(naphthalen-2-yl)-2-methylpropan-2-yl]amino]-2-hydroxypropoxy]ethyl]biphenyl-4-carboxylic acid], the IC50 amounted to 3 nM.
As for `CCCc1cc(-c2ccccc2[C@@H](C)OC[C@H](O)CNC(C)(C)Cc2ccc(C)c(F)c2)ccc1C(=O)O` [Example 1-38, 2′-[1-[(2R)-3-[[1-(3-fluoro-4-methylphenyl)-2-methylpropan-2-yl]amino]-2-hydroxypropoxy]ethyl]-3-propylbiphenyl-4-carboxylic acid], the figure is 2 nM; as for `Cc1cc(-c2ccccc2[C@@H](C)OC[C@H](O)CNC(C)(C)Cc2ccc3ccccc3c2)cc(C)c1C(=O)O` [Example 1-40, 3,5-dimethyl-2′-[1-[(2R)-3-[[1-(naphthalen-2-yl)-2-methylpropan-2-yl]amino]-2-hydroxypropoxy]ethyl]biphenyl-4-carboxylic acid], 3 nM; as for `C[C@@H](OC[C@H](O)CNC(C)(C)Cc1ccc2ccccc2c1)c1ccccc1-c1ccc(C(=O)O)c(-c2ccccc2)c1` [Example 1-41, 2-[1-[(2R)-3-[[1-(naphthalen-2-yl)-2-methylpropan-2-yl]amino]-2-hydroxypropoxy]ethyl]-m-terphenyl-4′-carboxylic acid], 3 nM.
Turning to `Cc1ccc(CC(C)(C)NC[C@@H](O)CO[C@H](C)c2ccccc2-c2ccc(C(=O)O)c(C)c2C)cc1F` [Example 1-42, 2′-[1-[(2R)-3-[[1-(3-fluoro-4-methylphenyl)-2-methylpropan-2-yl]amino]-2-hydroxypropoxy]ethyl]-2,3-dimethylbiphenyl-4-carboxylic acid], the IC50 was 24 nM.
Regarding `Cc1ccc(CC(C)(C)NC[C@@H](O)CO[C@H](C)c2ccccc2-c2cc(C)c(C(=O)O)c(C)c2)cc1F` [Example 1-43, 2′-[1-[(2R)-3-[[1-(3-fluoro-4-methylphenyl)-2-methylpropan-2-yl]amino]-2-hydroxypropoxy]ethyl]-3,5-dimethylbiphenyl-4-carboxylic acid], the IC50 was found to be 16 nM.
As to `C[C@@H](OC[C@H](O)CNC(C)(C)Cc1ccc2ccccc2c1)c1ccccc1-c1ccc(CO)c(C(=O)O)c1` [Example 1-44, 4-(hydroxymethyl)-2′-[1-[(2R)-3-[[1-(naphthalen-2-yl)-2-methylpropan-2-yl]amino]-2-hydroxypropoxy]ethyl]biphenyl-3-carboxylic acid], the IC50 was 9 nM.
On to `CC(C)Cc1cc(-c2ccccc2[C@@H](C)OC[C@H](O)CNC(C)(C)Cc2ccc3ccccc3c2)ccc1C(=O)O` [Example 1-45, 3-isobutyl-2′-[1-[(2R)-3-[[1-(naphthalen-2-yl)-2-methylpropan-2-yl]amino]-2-hydroxypropoxy]ethyl]biphenyl-4-carboxylic acid], for which the IC50 is 2 nM.
As for `Cc1ccc(CC(C)(C)NC[C@@H](O)CO[C@H](C)c2ccccc2-c2ccc(C(=O)O)c(CC(C)C)c2)cc1F` [Example 1-46, 2′-[1-[(2R)-3-[[1-(3-fluoro-4-methylphenyl)-2-methylpropan-2-yl]amino]-2-hydroxypropoxy]ethyl]-3-isobutylbiphenyl-4-carboxylic acid], the figure is 3 nM.
Consider `Cc1ccc(CC(C)(C)NC[C@@H](O)CO[C@H](C)c2ccccc2-c2ccc(CO)c(C(=O)O)c2)cc1F` [Example 1-47, 2′-[1-[(2R)-3-[[1-(3-fluoro-4-methylphenyl)-2-methylpropan-2-yl]amino]-2-hydroxypropoxy]ethyl]-4-(hydroxymethyl)biphenyl-3-carboxylic acid], for which the IC50 is 65 nM.
For `C[C@@H](OC[C@H](O)CNC(C)(C)Cc1ccc2ccccc2c1)c1ccccc1-c1ccc(C(=O)O)c(O)c1` [Example 1-49, 2′-[1-[(2R)-3-[[1-(naphthalen-2-yl)-2-methylpropan-2-yl]amino]-2-hydroxypropoxy]ethyl]-3-hydroxybiphenyl-4-carboxylic acid], the IC50 was 2 nM.
As for `Cc1ccc(CC(C)(C)NC[C@@H](O)CO[C@H](C)c2ccccc2-c2ccc(C(=O)O)c(O)c2)cc1F` [Example 1-50, 2′-[1-[(2R)-3-[[1-(3-fluoro-4-methylphenyl)-2-methylpropan-2-yl]amino]-2-hydroxypropoxy]ethyl]-3-hydroxybiphenyl-4-carboxylic acid], the figure is 2 nM; as for `CCc1cc(-c2ccccc2[C@@H](C)OC[C@H](O)CNC(C)(C)Cc2ccc(Cl)c(F)c2)ccc1C(=O)O` [Example 1-51, 3-ethyl-2′-[1-[(2R)-3-[[1-(4-chloro-3-fluorophenyl)-2-methylpropan-2-yl]amino]-2-hydroxypropoxy]ethyl]biphenyl-4-carboxylic acid], 4 nM.
`CC(C)c1cc(-c2ccccc2[C@@H](C)OC[C@H](O)CNC(C)(C)Cc2ccc(Cl)c(F)c2)ccc1C(=O)O` [Example 1-52, 2′-[1-[(2R)-3-[[1-(4-chloro-3-fluorophenyl)-2-methylpropan-2-yl]amino]-2-hydroxypropoxy]ethyl]-3-isopropylbiphenyl-4-carboxylic acid]: the IC50 came out at 3 nM.
